Read-outs that look alike come from different tables or passages of the source.
What was measured:
U251 tumours = test: Mice with implanted U251 tumours, time to progression (Example 3); type: in vivo; conditions: 60 mg/kg iv days 1, 8 and 15, FIG. 8
Method: The above procedure was followed in similar manner using the cell lines U87G and U251G. Once again, EDO-S101 (60 mg/kg) was administered intravenously via the tail vein, but in these experiments it was administered at days 1, 8 and 15. In place of bendamustime, TMZ was administered as a comparison at 16 mg/kg for 5 consecutive days, po. The mice were sacrificed after 28 days.

U251 [1] = test: Clonogenic survival with radiotherapy, U251; type: cell-based; conditions: 2.5 µM or 5 µM, 24 hr, plus radiotherapy, FIG. 10
Method: (§1) In a first experiment, U251, U87 and T98G cell lines were treated with radiotherapy alone or with radiotherapy and EDO-S101.
(§2) For clonogenic survival, exponentially growing cells (70% confluence) were cultured in regular media and treated with EDO-S101 at the appropriate concentrations, or vehicle (final DMSO concentration of 0.1%) for 24 hr. Tumour cell irradiation was done using a 6 MV linear accelerator Elekta Synergy using a clinically calibrated irradiation field of 30 × 30 cm. Two cm thick plates of perspex were positioned above and below the cell culture flasks completely filled with medium to compensate for the build-up effect. Non-irradiated controls were handled identically to the irradiated cells with the exception of the radiation exposure. […] Colonies containing more than 50 cells were counted. The plating efficiency (PE) was calculated as the number of colonies observed/the number of cell plated. The surviving fraction was calculated as the number of colonies formed in the treated dishes compared with the number formed in the control. The survival curves were analyzed using SPSS (Chicago, IL) statistical software by means of a fit of the data by a weighted, stratified, linear regression, according to the linear-quadratic formula: S(D)/S(O)=exp-(aD+bD2).

U87 = test: Clonogenic survival with radiotherapy, U87; type: cell-based; conditions: 2.5 µM or 5 µM, 24 hr, plus radiotherapy, FIG. 10
Method: as §1, §2

T98G = test: Clonogenic survival with radiotherapy, T98G; type: cell-based; conditions: 2.5 µM or 5 µM, 24 hr, plus radiotherapy, FIG. 10
Method: as §1, §2

U251 [2] = test: s.c. xenograft model of GBM, U251, time to progression; type: in vivo, mice; conditions: for time to progression of the tumours: U251G xenograft
Method: Next, adopting the procedure of Example 3, s.c. xenograft models of GBMs in mice were prepared using the GBM cell lines U251 and U87.
The U251 mice prepared as above were subjected either subjected to radiotherapy (2 Gy for 5 consecutive days), treatment with EDO-S101 (60 mg/kg intravenously at days 1, 8 and 15 of the treatment cycle) or control only. Before any irradiation mice were anesthetized with a mixture of ketamine (25 mg/ml)/xylazine (5 mg/ml). Anesthetized tumor-bearing mice received a focal irradiation at the dose of 2 Gy for 5 consecutive days. Irradiation was delivered using an X-ray linear accelerator at a dose rate of 200 cGy/min at room temperature. All mice were shielded with a specially designed lead apparatus to allow irradiation to the right hind limb. Mice were kept under these conditions until all irradiation finished.
A study was made of the progression of the GBM according to the procedure of Example 3.
In a follow up experiment, U251 mice prepared in the same manner were either subjected to the current gold standard treatment of radiotherapy and temozolomide (2 Gy for 5 consecutive days and 16 mg/kg for 5 consecutive days, po), treatment with EDO-S101 (60 mg/kg, intravenously at days 1, 8 and 15 of the treatment cycle), treatment with EDO-S101 and radiotherapy (2 Gy for 5 consecutive days and 60 mg/kg, intravenously at days 1, 8 and 15 of the treatment cycle) or control.

U251MG = test: GBM cell line viability IC50, U251; type: cell-based; conditions: Homo sapiens, U-251
Method: (§3) In vitro experiments were devised in which a series of GBM cell lines representative for MGMT negative and MGMT positive tumour cells were used.
(§4) Compounds: 1-100 µM EDO-S101, 1-50 µM temozolomide (TMZ), 1-50 µM temozolomide + 500 nM vorinostat, 1-40 µM bendamustine, 1-40 µM bendamustine and 500 nM vorinostat.
(§5) Twelve glioblastoma cell lines representing grade III and IV gliomas and with different expression of MGMT, drug and radiotherapy sensitivity and five patient derived glioblastoma stem, cells were used (see above). […] Spheres were counted 5 days after treatment under an inverted microscope at ×4 magnification. A sphere was counted if it had at least 15 cells.
(§6) Cells were seeded at a density of 2 × 10^4 cells/ml in 24 well plates. […] Cells trypsinized and resuspended in 1.0 ml of saline were counted using the NucleoCounterTM NC-100 (automated cell counter systems, Chemotec, Cydevang, DK) in order to evaluate cell viability. […] IC50 values were calculated by the GraFit method (Erithacus Software Limited, Staines, UK). Cell viability was measured with the 3-(4,5 dimethylthiazol-2-yl)-2,5-diphenyl tetrazolium bromide (MTT; Sigma-Aldrich) assay.
(§7) IC50 and IC20 values for all twelve cell lines against bendamustine and vorinostat were also determined as described above. […]

[3] = system: twelve tested GBM cell lines; test: GBM cell line viability, panel of twelve tested cell lines; type: cell-based; conditions: in combination with 500 nM vorinostat
Method: as §3, §4, §5, §6, §7

[4] = drug in combination with radiotherapy 2 Gy x 5 days, EDO-S101 60 mg/kg iv days 1, 8, 15, temozolomide 16 mg/kg po x 5 days

Cn1c(CCCCCCC(=O)NO)nc2cc(N(CCCl)CCCl)ccc21 [EDO-S101]
time to progression (TTP) versus control and TMZ (U251 tumours): significantly longer | % survival rate (surviving fraction) with radiotherapy versus radiotherapy alone (U251 [1]): considerably reduced | % survival rate (surviving fraction) with radiotherapy versus radiotherapy alone (U87): considerably reduced | % survival rate (surviving fraction) with radiotherapy versus radiotherapy alone (T98G): considerably reduced | time to progression of the tumours (U251 [2]; drug alone, 60 mg/kg iv days 1, 8, 15, control approximately 17-18 days): over 50 days | time to progression of the tumours (U251 [2]; [4]): over 50 days | time to progression versus radiotherapy-treated tumours (U251 [2]; U251 s.c. xenograft, drug alone, FIG. 11): considerably longer | time to progression versus EDO-S101 alone and versus radiotherapy and temozolomide (U251 [2]; U251 s.c. xenograft, drug plus radiotherapy, FIG. 12): significantly longer

Cn1nnc2c(C(N)=O)ncn2c1=O [temozolomide]
IC50 (U251MG; MGMT negative U251MG glioblastoma cell line, read-out: IC50): 20 µM | time to progression of the tumours (U251 [2]; [4]): 42 days

Cn1c(CCCC(=O)O)nc2cc(N(CCCl)CCCl)ccc21 [bendamustine]
IC50 (U251MG): 30 µM | sensitivity of all cell lines (FIG. 5) [3]: highly sensitive except Mz54 and T98G
